Patent US20230398101A1, “Co-agents as Therapy Against Anaerobic Pathogens” (priority 2022, published 2023)
Like-named read-outs stand apart in the source and are kept apart here.

Key:
Clostridium perfringens = test: microbe, parasite or virus in culture; assay type: cell-based; conditions: for MIC vs clinical breakpoint (susceptibility): anaerobic (Table 17)
Clostridium septicum = test: Anaerobic agar-dilution AST (MIC, checkerboard FIC); assay type: cell-based; conditions: for MIC vs clinical breakpoint (susceptibility): anaerobic (Table 17); for MIC: Clostridium septicum
Streptococcus mutans = test: as above; assay type: cell-based; conditions: strain UA 159, anaerobic
Bacteroides ovatus = test: as above; assay type: cell-based
Phocaeicola vulgatus = test: as above; assay type: cell-based; conditions: for MIC vs clinical breakpoint (susceptibility): anaerobic (Table 17)
[1] = system: Parabacteroides distasonis; test: as above; assay type: cell-based
Porphyromonas gingivalis = test: as above; assay type: cell-based; conditions: ATCC33277
Staphylococcus aureus = test: Aerobic agar-dilution AST of facultative anaerobes (MIC, checkerboard FIC); assay type: cell-based; conditions: Staphylococcus aureus, read-out: MIC
Acinetobacter baumannii = test: as above; assay type: cell-based
[2] = system: Lactobacillus acidophilus; test: AST (MIC) of beneficial or mutualistic facultative anaerobic bacteria; assay type: cell-based
Lactobacillus plantarum = test: as above; assay type: cell-based; conditions: Lactiplantibacillus plantarum
Pediococcus acidilactici = test: as above; assay type: cell-based
Enterococcus faecalis = test: Aerobic agar-dilution AST of facultative anaerobes (MIC, checkerboard FIC); assay type: cell-based
Enterococcus faecium = test: Aerobic agar-dilution AST of facultative anaerobes (MIC, checkerboard FIC), also at pH 5, 7, 8; assay type: cell-based; conditions: Enterococcus faecium 51559
[3] = system: Burkholderia thailandensis; test: microbe, parasite or virus in culture; assay type: cell-based; conditions: ATCC700388, pH 7
Escherichia coli = test: Post-antibiotic effect (PAE) in vitro, viable counts; conditions: Escherichia coli ATCC 25922

## C[C@@H]1O[C@@H]1P(=O)(O)O [F, fosfomycin sodium]
Clostridium perfringens; Clostridium perfringens 2-0246-4
  MIC vs clinical breakpoint (susceptibility): +
Clostridium perfringens; Clostridium perfringens 11-46
  MIC vs clinical breakpoint (susceptibility): +
Clostridium perfringens; Clostridium perfringens 11-50
  MIC vs clinical breakpoint (susceptibility): +
Clostridium perfringens; Clostridium perfringens 11-61
  MIC vs clinical breakpoint (susceptibility): +
Clostridium perfringens; Clostridium perfringens 12-117, anaerobic
  MIC: 16 µg/mL
Clostridium perfringens; Clostridium perfringens 12-117
  MIC vs clinical breakpoint (susceptibility): +
Clostridium perfringens; Clostridium perfringens, Clostridium perfringens 11-46, anaerobic
  MIC: 32 µg/mL
Clostridium perfringens; Clostridium perfringens, Clostridium perfringens 11-50, anaerobic
  MIC: 8 µg/mL
Clostridium perfringens; Clostridium perfringens, Clostridium perfringens 11-61, anaerobic
  MIC: 16 µg/mL
Clostridium perfringens; Clostridium perfringens, Clostridium perfringens 12-117, anaerobic
  MIC: 32 µg/mL
Clostridium perfringens; Clostridium perfringens, strain 2-0246-4, anaerobic
  MIC: 16 µg/mL
Clostridium perfringens; Clostridium perfringens, strain 11-50, anaerobic
  MIC: 16 µg/mL
Clostridium perfringens; Clostridium perfringens, strain 12-117, anaerobic
  MIC: 32 µg/mL
Clostridium perfringens; strain 2-0246-4, anaerobic
  MIC: 8 µg/mL
Clostridium perfringens; strain 11-50, anaerobic
  MIC: 8 µg/mL
Clostridium perfringens; strain 12-117, anaerobic
  MIC: 16 µg/mL
Clostridium septicum; Clostridium septicum 11-3571
  MIC vs clinical breakpoint (susceptibility): +
Clostridium septicum; Clostridium septicum 15-847
  MIC vs clinical breakpoint (susceptibility): +
Clostridium septicum; strain 11-3571, anaerobic
  MIC: 16 µg/mL
Clostridium septicum; strain 15-847, anaerobic
  MIC: 32 µg/mL
Streptococcus mutans
  MIC: 16 µg/mL
Bacteroides ovatus; Bacteroides ovatus ATCC 8483, anaerobic
  MIC: >128 µg/mL
Bacteroides ovatus; Bacteroides ovatus ATCC 8483, anaerobic (Table 17)
  MIC vs clinical breakpoint (susceptibility): −
Bacteroides ovatus; Bacteroides ovatus, ATCC8483
  MIC: > 128 µg/mL
Phocaeicola vulgatus; Phocaeicola vulgatus ATCC 8482
  MIC vs clinical breakpoint (susceptibility): −
Phocaeicola vulgatus; Phocaeicola vulgatus ATCC 29327
  MIC vs clinical breakpoint (susceptibility): −
Phocaeicola vulgatus; Phocaeicola vulgatus, ATCC8482, strain ATCC 8482, anaerobic
  MIC: > 128 µg/mL
Phocaeicola vulgatus; Phocaeicola vulgatus, ATCC29327, Phacoeicola vulgatus ATCC 29327, anaerobic
  MIC: 128 µg/mL
Phocaeicola vulgatus; Phocaeicola vulgatus, ATCC29327, strain ATCC 29327, anaerobic
  MIC: > 128 µg/mL
Phocaeicola vulgatus; Phocaeicola vulgatus, ATCC29327, strain ATCC 29327, anaerobic, read-out: MIC
  MIC: 64 µg/mL
Phocaeicola vulgatus; Phocaeicola vulgatus, Phacoeicola vulgatus TCC 8482, anaerobic
  MIC: > 128 µg/mL
Phocaeicola vulgatus; strain ATCC 8482, anaerobic
  MIC: 128 µg/mL
[1]; Parabacteroides distasonis
  MIC: > 128 µg/mL
[1]; Parabacteroides distasonis CLA 348, anaerobic
  MIC: >128 µg/mL
Porphyromonas gingivalis
  MIC: > 128 µg/mL
Staphylococcus aureus; ATCC33591, Staphylococcus aureus ATCC 33591 (Table 15)
  MIC: 4 µg/mL
Staphylococcus aureus; Staphylococcus aureus 829025
  MIC: 8 µg/mL
Staphylococcus aureus; Staphylococcus aureus 894946
  MIC: 8 µg/mL
Staphylococcus aureus; Staphylococcus aureus 920576
  MIC: 8 µg/mL
Staphylococcus aureus; Staphylococcus aureus 920962
  MIC: 8 µg/mL
Staphylococcus aureus; Staphylococcus aureus 927596
  MIC: 8 µg/mL
Staphylococcus aureus; Staphylococcus aureus 952566 (Table 15)
  MIC: > 16 µg/mL
Staphylococcus aureus; Staphylococcus aureus 952566 (Tables 14A/14B)
  MIC: 8 µg/mL
Staphylococcus aureus; Staphylococcus aureus 953041 (Table 15)
  MIC: 4 µg/mL
Staphylococcus aureus; Staphylococcus aureus 956270
  MIC: 8 µg/mL
Staphylococcus aureus; Staphylococcus aureus 956362
  MIC: 8 µg/mL
Staphylococcus aureus; Staphylococcus aureus 981550 (Table 15)
  MIC: 16 µg/mL
Staphylococcus aureus; Staphylococcus aureus 981550 (Tables 14A/14B)
  MIC: 8 µg/mL
Staphylococcus aureus; Staphylococcus aureus 994946
  MIC: 2 µg/mL
Staphylococcus aureus; Staphylococcus aureus 1022425
  MIC: 16 µg/mL
Staphylococcus aureus; Staphylococcus aureus 1045190
  MIC: 8 µg/mL
Staphylococcus aureus; strain (MR) 829025, aerobic
  MIC: 4 µg/mL
Staphylococcus aureus; strain (MR) 884649, aerobic
  MIC: 8 µg/mL
Staphylococcus aureus; strain (MR) 903887, aerobic
  MIC: 8 µg/mL
Staphylococcus aureus; strain (MR) 918019, aerobic
  MIC: 4 µg/mL
Staphylococcus aureus; strain (MR) 920516, aerobic
  MIC: 4 µg/mL
Staphylococcus aureus; strain (MR) 927596, aerobic
  MIC: 8 µg/mL
Staphylococcus aureus; strain (MR) 956270, aerobic
  MIC: 4 µg/mL
Staphylococcus aureus; strain (MR) 956362, aerobic
  MIC: 8 µg/mL
Staphylococcus aureus; strain (MR) 967287, aerobic
  MIC: 8 µg/mL
Staphylococcus aureus; strain (MR) 974980, aerobic
  MIC: 8 µg/mL
Staphylococcus aureus; strain (MR) 979234, aerobic
  MIC: 8 µg/mL
Staphylococcus aureus; strain (MR) 981550, aerobic
  MIC: 4 µg/mL
Staphylococcus aureus; strain (MR) 1022425, aerobic
  MIC: 8 µg/mL
Staphylococcus aureus; strain (MR) 1045190, aerobic
  MIC: 4 µg/mL
Acinetobacter baumannii
  MIC: > 128 µg/mL
Acinetobacter baumannii; pH 7, Acinetobacter baumannii 918857, pH 7, read-out: MIC
  MIC: 64000 µg/mL
Acinetobacter baumannii; strain 843978, aerobic, read-out: MIC
  MIC: 8 µg/mL
Acinetobacter baumannii; strain 918857, aerobic, read-out: MIC
  MIC: 64 µg/mL
Acinetobacter baumannii; strain 919656, aerobic, read-out: MIC
  MIC: 8 µg/mL
Acinetobacter baumannii; strain 919899, aerobic, read-out: MIC
  MIC: 8 µg/mL
Acinetobacter baumannii; strain 938781, aerobic, read-out: MIC
  MIC: 16 µg/mL
Acinetobacter baumannii; strain 1049160, aerobic, read-out: MIC
  MIC: 8 µg/mL
[2]
  MIC: > 128 µg/mL
Lactobacillus plantarum
  MIC: > 128 µg/mL
Pediococcus acidilactici
  MIC: > 128 µg/mL
Enterococcus faecalis; Enterococcus faecalis
  MIC: > 128 µg/mL
Enterococcus faecalis; Enterococcus faecalis 108, pH 5, read-out: MIC
  MIC: 8000 µg/mL
Enterococcus faecalis; Enterococcus faecalis 1086432, pH 7, read-out: MIC
  MIC: 64000 µg/mL
Enterococcus faecalis; Enterococcus faecalis, ATCC51559
  MIC: > 128 µg/mL
Enterococcus faecium; pH 5
  MIC: 16000 µg/mL
Enterococcus faecium; pH 8
  MIC: 64000 µg/mL
[3]
  MIC: 64000 µg/mL
Escherichia coli; exposure μg/ml: F 1, D/S 0.5/9.5, CAv 4/8, F/D/S 0.125/0.125/2.38, F/D/S/CAv 0.06/0.03/0.6/4/0.25
  PAE: 0.5 h
Escherichia coli; exposure μg/ml: F 2, D/S 1/19, CAv 4/16, F/D/S 0.25/0.25/4.75, F/D/S/CAv 0.125/0.06/1.19/4/0.5
  PAE: 0.5 h
Escherichia coli; exposure μg/ml: F 4, D/S 2/38, CAv 4/32, F/D/S 0.5/0.5/9.5, F/D/S/CAv 0.25/0.125/2.38/4/1
  PAE: 1 h
Escherichia coli; exposure μg/ml: F 8
  PAE: 1.5 h
